Consider three compounds from US20130197059A1, “INTEGRIN ANTAGONIST CONJUGATES FOR TARGETED DELIVERY TO CELLS EXPRESSING LFA-1” (Hoffmann-La Roche Inc., priority 2012, published 2013).

Like-named read-outs stand apart in the source and are kept apart here. Where only a bound is given, the exact number is not on record here.

In data set [1] the target is T1, sLFA-1/ICAM-1 (Homo sapiens, UniProt P05107+P20701).
T1 construct: 2.0 ug/ml solution of sLFA-1 or Mac-1 receptor
Put plainly: sLFA-1/ICAM-1 ELISA (LFA1 Adhesion Assay). It counts as binding. How it is done:
The following assay was conducted to assess effect of targeted molecules on the sLFA-1/ICAM-1 ELISA and Mac-1/ICAM-1 interactions.
Plates were coated with either 50 μl/well of 2.0 ug/ml solution of sLFA-1 or Mac-1 receptor in divalent cation buffer (1 mM MnCI2, 0.14M NaCl, 20 mM HEPES pH 7.2) at 4° C. overnight. Two hundred fifty μl of blocking buffer (1% BSA in divalent cation buffer) was added to each well 1 hour at 37° C. Plates were washed 3 times with wash buffer (TBS/0.05% Tween-20/1 mM MnCl2). The compound to be tested was solubilized in DMSO. […] Fifty μl of binding buffer (0.5% BSA in divalent cation buffer)/1% DMSO and 50 μl of the solutions to be tested were added to the appropriate wells and incubated for 1 hour. Fifty μl of 5dICAM-Fc (27 ng/ml) was added to the appropriate wells and 50 μl binding buffer was added to non-specific binding wells and incubated for 2 hours and washed. One hundred μl of 1:4000 HRP-goat anti-huIgG was added to each well and incubated for 1 hour and washed. One hundred μl of 1:1 TMB solution was added to each well and developed for 20 min at room temperature. Color development was stopped by adding 100 μl H3PO4 to each well. Absorbance was measured at 450 nm.
A general note: An ELISA detects its analyte on a solid surface through an enzyme-linked reagent.

Data set [2] relates to Jurkat Cells/VCAM-1. Nature of the data set: Jurkat Cells/VCAM-1 Adhesion Assay. To be noted: Table 4. It is filed as cell-based.
The subject of data set [3] is AHA1 mRNA. Put plainly: Knock-down of AHA1 mRNA by 5′-sense strand modified siRNA (Branched DNA Assay). It is filed as cell-based. The settings on record: H1299 cells, siRNA 50 nM, DharmaFect-1 reverse transfection, 48 hours. How it is done:
Assay of 5′-Sense Strand Modified siRNA for Knock-Down of AHA1 mRNA in Cellular Systems
Reference gene: GAPDH Cell line: H1299_Nut-One Plating density: 5,000 cells/well Plating format: 96-well Time from plating to treatment: 0 Control treatment: mock, untreated, control siRNA Transfection reagent: DharmaFectl
TF Reagent volume/well […] siRNA final concentration 50 nM Assay method: Day 1 manual/Day 2 Washer
Reverse transfection: H1299 cells were transfected with indicated siRNA at final concentration of 50 nM using DharmaFect-1 transfection reagent at 0.15 μl/well. Cells were then plated into 96-well plate at 5000 cells/well and incubated at 37° C. for 48 hours.
The efficacy of siRNA knock-down was measured with a Branched DNA Assay as reported by the vendor; the results of such knockdown are shown in FIG. 5. The relative cell viability was assessed by the absolute expression of GAPDH in the same well (FIG. 6).

[4] abbreviates: Table 4, read-out: LFA1 Adhesion Assay.
Setting [5] is: control compounds, read-out: IC50.

T1 sequence (P20701 26-1090 limits assumed): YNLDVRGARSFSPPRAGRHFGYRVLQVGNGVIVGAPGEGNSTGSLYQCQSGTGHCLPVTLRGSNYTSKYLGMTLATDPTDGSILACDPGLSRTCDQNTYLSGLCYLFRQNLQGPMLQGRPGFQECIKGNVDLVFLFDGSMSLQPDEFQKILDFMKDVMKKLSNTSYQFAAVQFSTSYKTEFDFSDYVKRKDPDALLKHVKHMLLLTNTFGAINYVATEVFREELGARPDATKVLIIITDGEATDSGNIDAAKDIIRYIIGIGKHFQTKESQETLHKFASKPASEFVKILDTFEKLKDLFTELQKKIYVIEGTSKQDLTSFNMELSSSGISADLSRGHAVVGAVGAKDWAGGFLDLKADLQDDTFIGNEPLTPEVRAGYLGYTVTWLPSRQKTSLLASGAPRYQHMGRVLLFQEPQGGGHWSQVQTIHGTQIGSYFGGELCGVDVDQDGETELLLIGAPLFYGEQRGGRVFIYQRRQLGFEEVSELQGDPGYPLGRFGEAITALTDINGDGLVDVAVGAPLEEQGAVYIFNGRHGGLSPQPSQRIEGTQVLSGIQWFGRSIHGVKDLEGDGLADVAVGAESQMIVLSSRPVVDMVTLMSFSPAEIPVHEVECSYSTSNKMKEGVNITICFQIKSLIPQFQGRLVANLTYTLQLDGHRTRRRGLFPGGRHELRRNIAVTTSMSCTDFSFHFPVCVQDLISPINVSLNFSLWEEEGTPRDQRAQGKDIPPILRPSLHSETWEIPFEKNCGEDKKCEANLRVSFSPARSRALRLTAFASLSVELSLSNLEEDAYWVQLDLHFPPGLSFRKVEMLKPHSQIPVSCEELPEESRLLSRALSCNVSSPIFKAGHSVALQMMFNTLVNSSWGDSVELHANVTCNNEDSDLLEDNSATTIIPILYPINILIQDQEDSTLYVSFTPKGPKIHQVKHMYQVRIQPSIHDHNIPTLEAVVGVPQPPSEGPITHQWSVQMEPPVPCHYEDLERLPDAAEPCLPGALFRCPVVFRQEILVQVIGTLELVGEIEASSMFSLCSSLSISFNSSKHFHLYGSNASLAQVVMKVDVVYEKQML
T1 sequence (P05107 23-700 limits assumed): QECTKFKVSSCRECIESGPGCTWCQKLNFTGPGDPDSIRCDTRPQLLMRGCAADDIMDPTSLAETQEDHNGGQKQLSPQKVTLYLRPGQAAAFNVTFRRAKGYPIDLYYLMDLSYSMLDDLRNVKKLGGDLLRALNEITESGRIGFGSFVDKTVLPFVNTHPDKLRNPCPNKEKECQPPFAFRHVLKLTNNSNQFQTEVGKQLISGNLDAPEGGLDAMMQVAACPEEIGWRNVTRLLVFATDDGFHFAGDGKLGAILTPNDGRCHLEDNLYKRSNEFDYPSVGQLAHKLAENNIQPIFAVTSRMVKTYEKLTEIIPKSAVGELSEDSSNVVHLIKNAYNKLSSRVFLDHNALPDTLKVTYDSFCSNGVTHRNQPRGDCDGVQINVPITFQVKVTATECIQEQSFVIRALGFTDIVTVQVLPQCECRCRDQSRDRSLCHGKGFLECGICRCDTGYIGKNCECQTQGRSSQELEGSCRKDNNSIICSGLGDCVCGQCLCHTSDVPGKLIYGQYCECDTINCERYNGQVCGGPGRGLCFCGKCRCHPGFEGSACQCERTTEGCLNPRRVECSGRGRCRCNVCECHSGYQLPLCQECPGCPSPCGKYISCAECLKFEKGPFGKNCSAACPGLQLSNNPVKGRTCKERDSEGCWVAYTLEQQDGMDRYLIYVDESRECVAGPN

Consider `Cc1cc(C(=O)NCc2cccc(Cl)c2)cc(C)c1C(=O)N[C@@H](CNC(=O)c1cccs1)C(=O)O` [compound 142], for which the IC50 in data set [1] (setting [4]) is 37 nM; in data set [1] (Table 5, read-out: LFA1 Adhesion Assay (IC50 nM)), 74 nM; in data set [1] (setting [5]), about 37 nM.

On to `O=C(NCc1cccc(O)c1)c1cc(Cl)c(C(=O)N[C@@H](CNC(=O)c2cc(O)cc(O)c2)C(=O)O)c(Cl)c1` [compound 143], for which the values for the IC50 in data set [1] (setting [4]) and in data set [1] (setting [5]) were 11 nM and about 11 nM, respectively.

For “Duplex-1: AHA1 siRNA duplex without targeting element: Sense-1 GGAuGAAGuGGAGAuuAGudTsdT, Antisense-1 ACuAAUCUCcACUUcAUCCdTsdT (sense GGAUGAAGUGGAGAUUAGUTT; antisense ACUAAUCUCCACUUCAUCCTT; lowercase nucleotides modified, meaning not given here, dTsdT 3' overhang)”, the IC50 in data set [2] is over 200 nM. In addition, in data set [3], the “AHA1 % KD” value amounted to 98%.
